Laboratory results as given in patent US20050043273A1, “Compositions and methods for inhibiting slit protein and glypican interactions” (priority 2003, published 2005).

What was measured:
[1] = system: glypican-1-Fc binding to human full-length Slit-2; test: ELISA: inhibition of glypican-1-Fc binding to Slit-2
Protocol: Human embryonic kidney 293 cells were transfected with a glypican-1-Fc fusion protein construct using Lipofectamine 2000 and grown in serum-free DMEM containing 1% ITS+. To separate the glycanated form of the proteoglycan (which was used for all studies) from unglycanated core protein, the conditioned medium was applied to a 0.9×8 cm column of DEAE-Sephacel equilibrated with 150 mM NaCl, 50 mM Tris-HCl, pH 8.0. After elution with 50 mM Tris-HCl (pH 8.0) containing 0.6 M NaCl, the glycanated glypican-1-Fc was bound to protein A-Sepharose beads, eluted with 0.1 M glycine, pH 3.0, and immediately neutralized with 1 M Tris, pH 8.0, for storage at −80° C.
293 cells were transfected with the pSecTagB vector (Invitrogen, Carlsbad, Calif.) containing cDNA for the His-tagged uncleavable variant of human full-length Slit-2, in which the nine amino acids encompassing the proteolytic processing site were deleted, producing an uncleavable full-length protein. 1 M NaCl extracts of the 293 cells were incubated with nickel-agarose beads (Qiagen) for 2 hours at 4° C., and after washing, bound protein was eluted with 10 mM Hepes (pH 7.5) containing 250 mM imidazole and 1 M NaCl. Protein concentrations were determined by the Bradford assay. Purity of the recombinant Slit protein was confirmed by SDS-PAGE followed by silver staining.
96-well plates (Corning Costar #9018) were coated overnight with the human full-length Slit-2 in imadazole/NaCl elution buffer at a saturating concentration of 1-5 μg/well, after dilution in PBS. Unbound protein was removed by washing with TBST (10 mM Tris-HCl, pH 7.4, 150 mM NaCl, 0.1% Tween 20), the wells were blocked with 10% FBS in TBST for 2 hours, and then incubated for 18 hours at room temperature with glypican-1-Fc (1 μg/well) in 5 mM PBS (pH 7.2), or in PBS containing varying concentrations of potential inhibitory compositions. Bound glypican was detected using a biotinylated anti-human Fc antibody (Jackson Immunoresearch; 1:250,000 in TBST, for 2 hours), followed by incubation for 20 minutes with HRP-conjugated streptavidin (1:20,000 in TBST). The colorimetric reaction product from the o-phenylenediamine substrate was measured at 450 nm using a Dynatech MRX ELISA plate reader. Nonspecific binding was calculated as the binding of glypican-1-Fc to wells coated with BSA (2 mg/ml solution). Percent inhibition was calculated in relation to parallel assay wells in which no inhibitor was added to the glypican-1 solution. From serial dilutions of a known concentration of glypican-1-Fc directly coated on the wells and the corresponding immunoreactivity absorbance, a standard curve could also be created and used to quantitate the absolute amount of glypican-1-Fc bound.
The glypican-1-Fc and human Slit-2 fusion proteins are prepared as set forth in Example One.

whole blood = details: cited from earlier work
[2] = system: vascular endothelial cells; details: cited from earlier work

With `CO[C@H]1O[C@H](COS(=O)(=O)O)[C@@H](O[C@@H]2O[C@@H](C(=O)O)[C@@H](O[C@H]3O[C@H](COS(=O)(=O)O)[C@@H](O[C@@H]4O[C@H](C(=O)O)[C@@H](O[C@H]5O[C@H](COS(=O)(=O)O)[C@@H](O)[C@H](O)[C@H]5NS(=O)(=O)O)[C@H](O)[C@H]4O)[C@H](OS(=O)(=O)O)[C@H]3NS(=O)(=O)O)[C@H](O)[C@H]2OS(=O)(=O)O)[C@H](O)[C@H]1NS(=O)(=O)O` [Arixtra] the “% inhibition of glypican-1 binding to Slit” value (from here on “% inhibition”) ([1]; 50 μM) was “no effect”.
In the case of `O=S(=O)(O)c1cc2c(O)c(c1)Cc1cc(S(=O)(=O)O)cc(c1O)Cc1cc(S(=O)(=O)O)cc(c1O)Cc1cc(S(=O)(=O)O)cc(c1O)Cc1cc(S(=O)(=O)O)cc(c1O)Cc1cc(S(=O)(=O)O)cc(c1O)Cc1cc(S(=O)(=O)O)cc(c1O)Cc1cc(S(=O)(=O)O)cc(c1O)C2` [GL-522-Y-1], the anticoagulant activity (whole blood) is listed as “no significant anticoagulant activity”, the antithrombotic activity [2] is listed as “heparin-like antithrombotic activity” and the “% inhibition” value ([1]; 1 μM) is listed as 58%. The “% inhibition” value ([1]; 5 μM) was 61% and the “% inhibition” value ([1]; 50 μM) was 67%.
For `Cc1ccc(C(=O)Nc2ccc(S(=O)(=O)O)c3cc(S(=O)(=O)O)cc(S(=O)(=O)O)c23)cc1NC(=O)c1cccc(NC(=O)Nc2cccc(C(=O)Nc3cc(C(=O)Nc4ccc(S(=O)(=O)O)c5cc(S(=O)(=O)O)cc(S(=O)(=O)O)c45)ccc3C)c2)c1` [suramin], the “inhibition of glypican binding to Slit proteins (in words)” value ([1]; ELISA, function of oligosaccharide size, FIG. 1) was “inhibits glypican-Slit interactions to the same extent as large heparin oligosaccharides”.
